Measured values reported in US11000538B2, “Composition for enhancing exercise ability or anti-fatigue comprising novel ginsenoside” (priority 2018, dated 2021).
Entries after “also recorded” stand apart in the source; their conditions may differ.

Legend:
[1] = system: SH-SY5Y cells; test: Cytotoxicity, Cell Counting Kit (CCK)-8; assay type: cell-based; conditions: SH-SY5Y cells, 0.1, 1, 5, 10, 20 and 50 μM; FIG. 27
Experimental: The cell growth in the presence of novel ginsenoside GS #10 of one embodiment of the present disclosure was evaluated using Cell Counting Kit (CCK)-8 in order to exclude the possibility that ginsenosides may affect exercise ability enhancing efficacy through cytotoxic activity. The experimental method is as follows.
10 μl of a CCK-8 reagent was added to SH-SY5Y cells in culture (Dojindo, Md., USA) with reference to a 96-well plate and left at 37° C. for 2 hours, and then absorbance was measured at 450 nm. The cell viability was marked as a percentage (%) of the absolute optical density of each sample relative to the untreated sample. At this time, the concentration of the novel ginsenoside GS #10, which is an example of the present disclosure, contained in the medium in which the cells were cultured was 0.1, 1, 5, 10, 20, and 50 μM, respectively.

[2] = system: Balb/c mice; test: Anti-fatigue efficacy in sleep-deprivation fatigue model (forced swim test, plasma lactate); assay type: in vivo; conditions: oral, 2 weeks; GS #10 10 and 50 mg/kg, ginseng seed extract 50 mg/kg; 24 hours sleep deprivation; FIGS. 36, 37
From the text: In Test Example 2 above, it was confirmed that the novel ginsenoside GS #10 of one embodiment of the present disclosure improved exercise ability and lowered plasma lactate in blood that is increased by exercise. […] Experimental methods are the same as those described in Cho et al., Biol Pharm Bull 33 (7):1128, which is incorporated herein by reference in its entirety. Balb/c mice purchased from Samtako were adapted to the age of 12 weeks and then divided into a fatigue-induced group of 32 mice and a control of 8 mice. The fatigue-induced group was divided into 4 groups again, each of 8 mice, of which is the novel ginsenoside GS #10 10 mg/kg treatment group (F/GS #10 10), 50 mg/kg treatment group (F/GS #10 50), ginseng seed extract 50 mg/kg treatment group (F/GSE #10 50), and untreated group (Fatigue). The ginseng seed extract is a comparative example of the present disclosure, and is a ginseng seed (seeds of Panax ginseng) methanol extract used in the isolation of ginsenoside in Example 1 described above herein. […] Then, while performing the FST (forced swim test) 6 minutes, the time during which the mice of each experiment group floated still on the water without swimming was measured to calculate fatigue. Thereafter, the plasma lactate in blood was measured, and the degree of accumulation of the fatigue substance was observed. […]

[3] = system: Sprague-Dawley (SD) mice; test: Treadmill experiment after 6 weeks of oral administration (muscle mitochondrial genes, exercise time, plasma lactate); assay type: in vivo; conditions: 20 mg/kg orally for 6 weeks; for expression of mitochondrial marker gene in muscle (mitochondrial activity): muscle tissue after treadmill, FIGS. 16-18; for exercise time / exercise ability on treadmill: run until exhausted, FIGS. 19, 25
Experimental: The following experiment was performed to confirm whether the exercise ability improving effect due to the increased mitochondrial production and lipid metabolism promotion of the ginseng seed-derived novel ginsenoside (GS #10) confirmed in Test Example 1 above was also shown at the actual individual level. 20 mg/kg each of the novel ginsenoside GS #10 of one embodiment of the present disclosure and the other ginsenosides GS #01-GS #06 isolated from the existing ginseng seed extract was orally administered to 39-week-old female Sprague-Dawley (SD) mice, and 10 mg/kg each thereof was orally administered to the control group GW/Met for 6 weeks. In order to improve the treadmill adaptability during the six-week experiment, mice were placed on the treadmill every two weeks to familiarize them with the use of the treadmill. After six weeks of administration, mice were placed on a treadmill to run on the treadmill. The exercise time was until the mice were exhausted and pushed down from the treadmill, and the mice which finished the exercise was immediately extracted of muscle tissue and plasma by necropsy. […] The expression patterns of mitochondrial marker genes in muscle are shown in FIGS. 16 to 18, and exercise time and plasma lactate in blood are shown in FIGS. 19 and 20.
(§1) The experiments were performed in the same manner as in Test Examples 1 and 2 above, respectively.
(§2) First, the C2C12 myocytes differentiated in the same manner as in Test Example 1 above were treated with ginsenosides Rg1, Rg3, and Rb1, which are comparative examples of the present disclosure, and the novel ginsenoside GS #10 of one embodiment of the present disclosure, respectively, and then mitochondria and marker genes were observed (FIGS. 21 to 25). In addition, in the same manner as in Test Example 2 above, after administration of 20 mg/kg each of ginsenosides Rg1, Rg3, Rb1, which are comparative examples of the present disclosure, and the novel ginsenoside GS #10 of one embodiment of the present disclosure for 6 weeks to the mice, the exercise ability was observed.

[4] = system: C2C12 myoblasts; test: Myocyte differentiation promotion (mRNA of MyoG, α-actin, myosin); assay type: cell-based, mouse; conditions: 10 pg/ml during 4 days of differentiation in 2% horse serum; FIGS. 29-31, 33-35
Experimental: As muscles decrease with age, supplementing muscle mass by differentiating myoblasts into myocytes is an essential process for maintaining muscle mass. […] During the differentiation period, the novel ginsenoside GS #10 of one embodiment of the present disclosure and the other ginsenosides GS #01-GS #06 isolated from the existing ginseng seed extract were treated at a concentration of 10 pg/ml, respectively. The control is differentiation medium not treated with ginsenosides. […] After 4 days of differentiation, mRNA was extracted from each treatment group using Trizol™ reagent (Thermo Fisher Scientific), and then cDNA was synthesized using a RevertAid 1st strand cDNA synthesis kit (Thermo Fisher Scientific). The expression levels of myoG, α-actin and myosin, which are muscle fiber marker genes, were observed using a temperature-cycling nucleic acid amplifier (CFX96 thermocycle, Bio-Rad).
The experiment was performed in the same manner as in Test Examples 5 and 6.

[5] = system: mouse-derived myocyte lines (C2C12; ATCC); test: Mitochondrial production in differentiated myocytes (Mitotracker Green staining, Q-PCR of mitochondrial marker genes); assay type: cell-based; conditions: 20 pg/ml, 24 hours
Experimental: (§3) Ginseng seed-derived ginsenosides were administered to mouse-derived myocyte lines (C2C12; ATCC) to observe changes in mitochondrial amount and fatty acid oxidation in myocytes.
(§4) The mouse-derived myocyte lines (C2C12; ATCC) were cultured using Dulbecco's Modified Eagle's Medium (DMEM; Sigma) containing […] fetal bovine serum (Hyclone) and 1% penicillin/streptomycin (Sigma). The cells were induced to be 100% confluent for differentiation into myocytes and then differentiated using a DMEM medium containing 2% horse serum (Hyclone) and 1% penicillin/streptomycin (Sigma). Medium was changed daily, with differentiation for a total of a week.
(§5) After treating the differentiated myocytes with the novel ginsenoside GS #10 of one embodiment of the present disclosure and the other ginsenosides GS #01-GS #06 isolated from the existing ginseng seed extract at a concentration of 20 pg/ml for 24 hours, respectively, the amount of mitochondria in myocytes was observed by staining with a Mitotracker Green™ (Invitrogen) reagent. mRNA expression levels of mitochondrial marker genes were measured using Q-PCR. As positive controls, a combination of GW501516 and Metformin (GW/Met; treated at 10 μM each), which are candidates for exercise mimetics and are known to improve exercise ability by activating PPARδ (Peroxisome proliferator-activated receptor delta) and AMPK (AMP-activated protein kinase), respectively, was used. The mitochondrial number measured as a result of the test is shown in FIG. 11, and the mitochondrial marker gene expression levels are shown in FIGS. 12 to 14.
as §1, §2

[6] = system: mouse-derived myocyte lines (C2C12; ATCC); test: Fatty acid oxidation in differentiated myocytes; assay type: cell-based; conditions: 20 pg/ml, 24 hours, FIG. 15
Experimental: as §3, §4
as §5, with “As positive controls, a combination of GW501516 and Metformin (GW/Met; treated at 10 μM each), which are candidates for exercise mimetics and are known to improve exercise ability by activating PPARδ (Peroxisome proliferator-activated receptor delta) and AMPK (AMP-activated protein kinase), respectively, was used.” left out

[7] = system: C2C12 myoblasts induced with chronic inflammation (IL-6); test: Cell growth recovery of myoblasts with IL-6-induced chronic inflammation; assay type: cell-based, mouse; conditions: IL-6 10 ng/ml for 4 weeks, then 10 pg/ml for 48 hours; FIGS. 28, 32
From the text: Muscle cells are made from myosatellite cells present inside the muscle. They are usually in a quiescent state, and when muscle damage such as exercise is applied, they wake up and are divided to form myoblasts, and these myoblasts differentiate to form myocytes. These muscle stem cells are known to decrease in number and activity with age. In this process, the inflammatory response, especially IL-6 is involved. Therefore, it was confirmed through the following experiment whether the novel ginsenoside of the embodiment of the present disclosure can restore cell division of muscle stem cells under IL-6-mediated muscle stem cell growth inhibition conditions.
Since muscle stem cells are not available in the form of cell lines, mouse-derived muscle cell lines (C2C12, ATCC) located between muscle stem cells and myoblasts were cultured using Dulbecco's Modified Eagle's Medium (Sigma) containing 10% fetal bovine serum (Hyclone) and 1% penicillin/streptomycin (Sigma). […] Accordingly, in order to induce an inflammatory state due to aging, IL-6 (10 ng/ml) was treated for 4 weeks to induce myoblast aging. […] Myoblasts of this state were treated with the novel ginsenoside GS #10 of one embodiment of the present disclosure and the other ginsenosides GS #01-GS #06 isolated from the existing ginseng seed extract at a concentration of 10 pg/ml each for 48 hours. […]

Molecule | cytotoxicity (cell viability, % of untreated) [1] | fatigue relief (FST immobility time, plasma lactate) [2] | lactic acid concentration (plasma lactate), muscle fatigue marker ([3]; blood after treadmill, FIGS. 20, 26) | expression of mitochondrial marker gene in muscle (mitochondrial activity) [3] | exercise time / exercise ability on treadmill [3] | myocyte differentiation marker gene expression (MyoG, α-actin, myosin) [4] | mitochondrial biosynthesis ability / mitochondria production (mitochondrial number; PGC1α, NRF1, tfam expression) ([5]; FIGS. 11-14, 21-24) | fatty acid oxidation in myocytes [6] | cell growth recovery of aged myoblasts (number of cells) [7] | mitochondrial biosynthesis ability / mitochondria production (mitochondrial number; PGC1α, NRF1, tfam expression) ([5]; FIGS. 11-14, 21-24, listed as Rb1)
C[C@@H]1CC(=O)C(C)(C)C2C1C1C[C@@H](O)C3C([C@]4(C)CC[C@H](C(C)(C)O)O4)CC[C@@]3(C)[C@]1(C)C[C@@H]2O[C@H]1OC(CO)[C@H](O)C(O)C1O[C@H]1OC(CO)[C@H](O)C(O)C1O (stereo partly drawn) [GS #10, (20S,24R)-6-O-β-D-glucopyranosyl(1→2)-β-D-glucopyranoside-dammar-3-one-20,24-epoxy-6a,12b,25-triol] | did not exhibit cytotoxicity up to 50 μM | reduce the symptoms caused by fatigue in a concentration-dependent manner | the lowest pattern; also recorded: anti-fatigue effect | significantly increased | doubled the exercise time; also recorded: significant exercise ability improvement | a significant increase in marker gene expression; also recorded: myocyte differentiation | the most excellent; also recorded: showed mitochondria increasing efficacy | increased the most | a significant effect; also recorded: showed the effects of promoting myoblast growth | 
ginsenoside Rg3 |  |  |  |  |  |  | did not increase mitochondria production |  |  | 
CC(C)=CCC[C@](C)(O[C@@H]1O[C@H](CO[C@@H]2OC[C@H](O)[C@H](O)[C@H]2O)[C@@H](O)[C@H](O)[C@H]1O)[C@H]1CC[C@]2(C)[C@@H]1[C@H](O)C[C@@H]1[C@@]3(C)CC[C@H](O[C@@H]4O[C@H](CO)[C@@H](O)[C@H](O)[C@H]4O[C@@H]4O[C@H](CO)[C@@H](O)[C@H](O)[C@H]4O)C(C)(C)[C@@H]3CC[C@]12C [GS #06, ginsenoside Rb2, reference compound] |  |  |  | insignificant | insignificant |  | a slight mitochondria increasing efficacy |  |  | 
CC(C)=CCC[C@](C)(O[C@@H]1O[C@H](CO)[C@@H](O)[C@H](O)[C@H]1O)[C@H]1CC[C@]2(C)[C@@H]1[C@H](O)C[C@@H]1[C@@]3(C)CC[C@H](O)C(C)(C)[C@@H]3[C@@H](O[C@@H]3O[C@H](CO)[C@@H](O)[C@H](O)[C@H]3O)C[C@]12C [Rg1, ginsenoside Rg1] |  |  |  |  |  |  | did not increase mitochondria production |  |  | 
CC(C)=CCC[C@](C)(O[C@@H]1O[C@H](CO[C@@H]2O[C@H](CO)[C@@H](O)[C@H](O)[C@H]2O)[C@@H](O)[C@H](O)[C@H]1O)[C@H]1CC[C@]2(C)[C@@H]1[C@H](O)C[C@@H]1[C@@]3(C)CC[C@H](O[C@@H]4O[C@H](CO)[C@@H](O)[C@H](O)[C@H]4O[C@@H]4O[C@H](CO)[C@@H](O)[C@H](O)[C@H]4O)C(C)(C)[C@@H]3CC[C@]12C [GS #05, ginsenoside Rb1, reference compound] |  |  |  | insignificant | insignificant |  | a slight mitochondria increasing efficacy |  |  | did not increase mitochondria production
